{"source": "patent US20250034170A1", "about": "“SMALL MOLECULE MODULATORS OF GLUCOCEREBROSIDASE ACTIVITY AND USES THEREOF” (Vanqua Bio, Inc., priority 2021, published 2025)", "data": [{"target": "T1, GCase (Homo sapiens, UniProt P04062)", "T1 construct": "endogenous in cells; host or cells: HeLa cells", "T1 sequence (P04062 40-536)": "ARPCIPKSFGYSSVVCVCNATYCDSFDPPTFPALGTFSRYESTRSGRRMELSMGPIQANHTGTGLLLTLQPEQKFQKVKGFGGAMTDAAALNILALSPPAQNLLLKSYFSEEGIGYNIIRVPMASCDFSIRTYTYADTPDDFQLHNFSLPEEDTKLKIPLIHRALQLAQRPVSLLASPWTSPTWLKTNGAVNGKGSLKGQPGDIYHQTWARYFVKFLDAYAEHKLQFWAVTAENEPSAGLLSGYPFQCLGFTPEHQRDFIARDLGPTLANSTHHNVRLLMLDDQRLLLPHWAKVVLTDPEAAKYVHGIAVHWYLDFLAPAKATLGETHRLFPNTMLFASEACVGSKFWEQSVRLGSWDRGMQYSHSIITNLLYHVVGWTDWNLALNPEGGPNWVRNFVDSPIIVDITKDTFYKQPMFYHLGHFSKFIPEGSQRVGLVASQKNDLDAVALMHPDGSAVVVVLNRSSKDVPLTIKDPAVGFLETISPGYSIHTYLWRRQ", "experiment": "activation of GCase in a live cell PFB assay in HELA cells", "format": "cell-based", "settings": "EC50 given as range classes", "description": "(§1) Exemplary compounds were evaluated for activation of GCase in a live cell PFB assay in HELA cells (essentially as described in Ysselstein et al., “LRRK2 kinase activity regulates lysosomal glucocerebrosidase in neurons derived from Parkinson's disease patients” Nature Communications (2019) 10:5570). […] EC50 ranges: A: <10 μM; B: >10-50 μM; C: >50-100 μM; D: >100 μM.", "units": {"EC50": "µM"}, "values": [{"compound": "O=C(c1ccc(Cl)cc1)N1CC2(CCN(c3cnc4cnn(CC(F)F)c4n3)C2)C1", "note": "[Cmpd 378]", "EC50": "> 100"}, {"compound": "COc1ccc(C(=O)N2CC3(CCN(c4cnc5cnn(CC(F)F)c5n4)C3)C2)cc1", "note": "[Cmpd 379]", "EC50": "10 to 50"}, {"compound": "COc1cccc(C(=O)N2CC3(CCN(c4cnc5cnn(CC(F)F)c5n4)C3)C2)c1", "note": "[Cmpd 380]", "EC50": "< 10"}, {"compound": "Cc1cccc(C(=O)N2CC3(CCN(c4cnc5cnn(CC(F)F)c5n4)C3)C2)c1", "note": "[Cmpd 381]", "EC50": "< 10"}, {"compound": "O=C(c1cccc(C(F)(F)F)c1)N1CC2(CCN(c3cnc4cnn(CC(F)F)c4n3)C2)C1", "note": "[Cmpd 382]", "EC50": "10 to 50"}, {"compound": "O=C(c1ccccc1Cl)N1CC2(CCN(c3cnc4cnn(CC(F)F)c4n3)C2)C1", "note": "[Cmpd 383]", "EC50": "< 10"}, {"compound": "Cc1ccccc1C(=O)N1CC2(CCN(c3cnc4cnn(CC(F)F)c4n3)C2)C1", "note": "[Cmpd 384]", "EC50": "< 10"}, {"compound": "Cc1ccc(S(=O)(=O)N2CC3(CCN(c4cnc5cnn(CC(F)F)c5n4)C3)C2)cc1", "note": "[Cmpd 385]", "EC50": "10 to 50"}, {"compound": "O=S(=O)(c1ccc(Cl)cc1)N1CC2(CCN(c3cnc4cnn(CC(F)F)c4n3)C2)C1", "note": "[Cmpd 386]", "EC50": "10 to 50"}, {"compound": "O=C(c1ccc(OC(F)F)cc1)N1CC2(CCN(c3cnc4cnn(CC(F)F)c4n3)C2)C1", "note": "[Cmpd 387]", "EC50": "10 to 50"}, {"compound": "O=C(c1cccc(OC(F)(F)F)c1)N1CC2(CCN(c3cnc4cnn(CC(F)F)c4n3)C2)C1", "note": "[Cmpd 388]", "EC50": "10 to 50"}, {"compound": "O=C(c1ccccc1OC(F)F)N1CC2(CCN(c3cnc4cnn(CC(F)F)c4n3)C2)C1", "note": "[Cmpd 389]", "EC50": "< 10"}, {"compound": "O=C(c1ccccc1OC(F)(F)F)N1CC2(CCN(c3cnc4cnn(CC(F)F)c4n3)C2)C1", "note": "[Cmpd 390]", "EC50": "< 10"}]}, {"target": "T1, GCase", "experiment": "activation of GCase in a live cell PFB assay in HELA cells", "format": "cell-based", "settings": "activation of GCase, EC50 ranges", "description": "as §1", "units": {"EC50": "µM"}, "values": [{"compound": "O=C1N(Cc2cncc(Cl)c2)CCC12CCN(c1cnc3cnn(CC(F)F)c3n1)CC2", "note": "[Cmpd 333]", "EC50": "< 10"}, {"compound": "O=C1CC2(CCN(c3cnc4cnn(CC(F)F)c4n3)CC2)CN1Cc1cncc(F)c1", "note": "[Cmpd 334]", "EC50": "50 to 100"}, {"compound": "O=C1CC2(CCN(c3cnc4cnn(CC(F)F)c4n3)CC2)CN1Cc1cncc(C(F)(F)F)c1", "note": "[Cmpd 335]", "EC50": "10 to 50"}, {"compound": "O=C1CC2(CCN(c3cnc4cnn(CC(F)F)c4n3)CC2)CN1Cc1cncc(Cl)c1", "note": "[Cmpd 336]", "EC50": "10 to 50"}, {"compound": "O=C1N(c2ccnc(C(F)(F)F)c2)CCC12CN(c1cnc3cnn(CC(F)F)c3n1)C2", "note": "[Cmpd 337]", "EC50": "< 10"}, {"compound": "O=C1CC2(CN(c3cnc4cnn(CC(F)F)c4n3)C2)CN1c1ccnc(C(F)(F)F)c1", "note": "[Cmpd 338]", "EC50": "10 to 50"}, {"compound": "O=C1N(c2cnc3cnn(CC(F)F)c3n2)CCC12CN(c1ccnc(C(F)(F)F)c1)C2", "note": "[Cmpd 339]", "EC50": "10 to 50"}, {"compound": "O=C1CC2(CN(c3ccnc(C(F)(F)F)c3)C2)CN1c1cnc2cnn(CC(F)F)c2n1", "note": "[Cmpd 340]", "EC50": "< 10"}, {"compound": "O=C1N(c2ccc(C(F)(F)F)cn2)CCCC12CN(c1cnc3cnn(CC(F)F)c3n1)C2", "note": "[Cmpd 341]", "EC50": "10 to 50"}, {"compound": "O=C1N(c2cnc3cnn(CC(F)F)c3n2)CCCC12CN(c1ccc(C(F)(F)F)nc1)C2", "note": "[Cmpd 342]", "EC50": "> 100"}, {"compound": "O=C1N(c2cnc3cnn(CC(F)F)c3n2)CCCC12CN(c1ccc(C(F)(F)F)cn1)C2", "note": "[Cmpd 343]", "EC50": "> 100"}, {"compound": "FC(F)(F)c1cc(N2CCC3(C2)CN(c2cnc4cnn(C5COC5)c4n2)C3)ccn1", "note": "[Cmpd 344]", "EC50": "< 10"}, {"compound": "Cc1nn(C2COC2)c2nc(N3CC4(CCN(c5ccnc(C(F)(F)F)c5)C4)C3)cnc12", "note": "[Cmpd 345]", "EC50": "< 10"}, {"compound": "O=C1N(c2ccnc(C(F)(F)F)c2)CCC12CN(c1cnc3cnn(C4COC4)c3n1)C2", "note": "[Cmpd 346]", "EC50": "50 to 100"}, {"compound": "Cc1nn(C2COC2)c2nc(N3CC4(CCN(c5ccnc(C(F)(F)F)c5)C4=O)C3)cnc12", "note": "[Cmpd 347]", "EC50": "10 to 50"}, {"compound": "O=C1CC2(CN(c3cnc4cnn(C5COC5)c4n3)C2)CN1c1ccnc(C(F)(F)F)c1", "note": "[Cmpd 348]", "EC50": "10 to 50"}, {"compound": "Cc1nn(C2COC2)c2nc(N3CC4(CC(=O)N(c5ccnc(C(F)(F)F)c5)C4)C3)cnc12", "note": "[Cmpd 349]", "EC50": "10 to 50"}, {"compound": "FC(F)(F)Cn1ncc2ncc(N3CC4(CCN(c5ccnc(C(F)(F)F)c5)C4)C3)nc21", "note": "[Cmpd 350]", "EC50": "< 10"}, {"compound": "FC(F)Cn1ncc2cnc(N3CC4(CCN(c5ccnc(C(F)(F)F)c5)C4)C3)nc21", "note": "[Cmpd 351]", "EC50": "< 10"}, {"compound": "Cc1nn(CC(F)F)c2nc(N3CC4(CCN(c5ccnc(C(F)(F)F)c5)C4)C3)ncc12", "note": "[Cmpd 352]", "EC50": "< 10"}, {"compound": "Cc1nn(CC(F)F)c2nc(N3CC4(CCN(c5ccnc(C(F)(F)F)c5)C4)C3)cnc12", "note": "[Cmpd 353]", "EC50": "< 10"}, {"compound": "O=C1N(Cc2cccc(C(F)(F)F)n2)CCC12CCN(c1cnc3cnn(CC(F)F)c3n1)CC2", "note": "[Cmpd 354]", "EC50": "< 10"}, {"compound": "O=C1N(Cc2cc(C(F)(F)F)ccn2)CCC12CCN(c1cnc3cnn(CC(F)F)c3n1)CC2", "note": "[Cmpd 355]", "EC50": "< 10"}, {"compound": "CCOc1ccc(CN2CCC3(CCN(c4cnc5cnn(CC(F)F)c5n4)CC3)C2=O)cn1", "note": "[Cmpd 356]", "EC50": "10 to 50"}, {"compound": "O=C1N(Cc2ccnc(C(F)(F)F)c2)CCC12CCN(c1cnc3cnn(CC(F)F)c3n1)CC2", "note": "[Cmpd 357]", "EC50": "< 10"}, {"compound": "O=C1N(Cc2cc(F)cc(F)c2)CCC12CCN(c1cnc3cnn(CC(F)F)c3n1)CC2", "note": "[Cmpd 358]", "EC50": "< 10"}, {"compound": "O=C1CC2(CCN(c3cnc4cnn(CC(F)F)c4n3)CC2)CN1Cc1cc(C(F)(F)F)ccn1", "note": "[Cmpd 359]", "EC50": "< 10"}, {"compound": "O=C1CC2(CCN(c3cnc4cnn(CC(F)F)c4n3)CC2)CN1Cc1cccc(C(F)(F)F)n1", "note": "[Cmpd 360]", "EC50": "< 10"}, {"compound": "CCOc1ccc(CN2CC3(CCN(c4cnc5cnn(CC(F)F)c5n4)CC3)CC2=O)cn1", "note": "[Cmpd 361]", "EC50": "10 to 50"}, {"compound": "O=C1CC2(CCN(c3cnc4cnn(CC(F)F)c4n3)CC2)CN1Cc1ccnc(C(F)(F)F)c1", "note": "[Cmpd 362]", "EC50": "< 10"}, {"compound": "O=C1CC2(CCN(c3cnc4cnn(CC(F)F)c4n3)CC2)CN1Cc1cc(F)cc(F)c1", "note": "[Cmpd 363]", "EC50": "< 10"}, {"compound": "CCc1csc(CN2CCC3(CCN(c4cnc5cnn(CC(F)F)c5n4)CC3)C2=O)n1", "note": "[Cmpd 364]", "EC50": "< 10"}, {"compound": "O=C1N(Cc2nc(C(F)(F)F)cs2)CCC12CCN(c1cnc3cnn(CC(F)F)c3n1)CC2", "note": "[Cmpd 365]", "EC50": "10 to 50"}, {"compound": "O=C1N(Cc2cnc(C(F)(F)F)s2)CCC12CCN(c1cnc3cnn(CC(F)F)c3n1)CC2", "note": "[Cmpd 366]", "EC50": "< 10"}, {"compound": "CCc1csc(CN2CC3(CCN(c4cnc5cnn(CC(F)F)c5n4)CC3)CC2=O)n1", "note": "[Cmpd 367]", "EC50": "10 to 50"}, {"compound": "O=C1CC2(CCN(c3cnc4cnn(CC(F)F)c4n3)CC2)CN1Cc1nc(C(F)(F)F)cs1", "note": "[Cmpd 368]", "EC50": "< 10"}, {"compound": "O=C1CC2(CCN(c3cnc4cnn(CC(F)F)c4n3)CC2)CN1Cc1cnc(C(F)(F)F)s1", "note": "[Cmpd 369]", "EC50": "10 to 50"}, {"compound": "O=C(c1ccc(OC(F)(F)F)cc1)N1CC2(CCN(c3cnc4cnn(CC(F)F)c4n3)C2)C1", "note": "[Cmpd 370]", "EC50": "10 to 50"}, {"compound": "O=C(c1cccc(Cl)c1)N1CC2(CCN(c3cnc4cnn(CC(F)F)c4n3)C2)C1", "note": "[Cmpd 371]", "EC50": "< 10"}, {"compound": "O=S(=O)(c1ccc(C(F)(F)F)cc1)N1CC2(CCN(c3cnc4cnn(CC(F)F)c4n3)C2)C1", "note": "[Cmpd 372]", "EC50": "10 to 50"}, {"compound": "O=S(=O)(c1ccc(F)cc1)N1CC2(CCN(c3cnc4cnn(CC(F)F)c4n3)C2)C1", "note": "[Cmpd 373]", "EC50": "10 to 50"}, {"compound": "O=S(=O)(c1cccc(C(F)(F)F)c1)N1CC2(CCN(c3cnc4cnn(CC(F)F)c4n3)C2)C1", "note": "[Cmpd 374]", "EC50": "10 to 50"}, {"compound": "O=S(=O)(c1cccc(F)c1)N1CC2(CCN(c3cnc4cnn(CC(F)F)c4n3)C2)C1", "note": "[Cmpd 375]", "EC50": "< 10"}, {"compound": "FC(F)(F)c1cc(N2CCC3(C2)CN(c2ncc4cnn(C5COC5)c4n2)C3)ccn1", "note": "[Cmpd 376]", "EC50": "10 to 50"}, {"compound": "O=C(c1ccc(C(F)(F)F)cc1)N1CC2(CCN(c3cnc4cnn(CC(F)F)c4n3)C2)C1", "note": "[Cmpd 377]", "EC50": "> 100"}]}]}
